These results are taken from US20230202982A1, “5-CHLORO-4-HYDROXY-1-METHYL-2-OXO-N-PHENYL-QUINOLINE-3-CARBOXAMIDE POTASSIUM SALT FOR TREATING INFLAMMATORY BOWEL DISEASES” (Aqilion AB, priority 2020, published 2023).

For data set [1], the system named is CD4+ adoptive transfer induced inflammatory bowel disease. As to the kind of experiment: CD4+ adoptive transfer induced inflammatory bowel disease in mice. The data set is classed as in vivo. As to the method:
The efficacy of the 5-chloro-4-hydroxy-1-methyl-2-oxo-N-phenyl-quinoline-3-carboxamide potassium salt in inhibiting inflammation/edema associated with inflammatory bowel disease was evaluated in a CD4+ adoptive transfer induced inflammatory bowel disease in mice.
On study day -1, SCID mice were weighed and evenly distributed into treatment groups based on body weight.
On study day 0, Balb/C mice were terminated, and spleens obtained for CD4^+CD45RB^high cell isolation (Using SCID IBD Cell Separation Protocol). After cells were sorted and obtained, each animal in the treatment groups received an IP injection of CD4^+CD45RB^high cells at a minimum 4x10^5 cells (200 µl/mouse injections). A naive group of mice was followed through the experiment without receiving the injection of cells. The naive group comprised 5 animals.
On study day 21, treatment with 5-chloro-4-hydroxy-1-methyl-2-oxo-N-phenylquinoline-3-carboxamide potassium salt (1 mg/kg, daily day 21 to 49) was initiated. The compound was formulated as a 0.1 mg/mL suspension with sodium carboxymethyl cellulose (1%, w/v). Mice received either the 5-chloro-4-hydroxy-1-methyl-2-oxo-N-phenyl-quinoline-3-carboxamide potassium salt (Example compound 1) or vehicle. Each of those groups comprised 10 animals.
On study day 49, animals were anesthetized with Isoflurane and bled to exsanguination followed by cervical dislocation. The entire colon was removed, measured, and weighed. The colon was analysed for its level of interferon-γ and IL-22. The inflammation in the colons was also scored by visual and histopathological assessments.

The nature of data set [2]: Thermogravimetric analysis (TGA) and differential scanning calorimetry (DSC). The data set is classed as physicochemical. Particulars: heating 20° C./min, nitrogen. As to the method: For the TGA analysis, approximately 5-10 mg of sample of Example Compound 1 was accurately weighed into a pierced Tzero aluminium pan and sealed with a pinhole lid using a crimper. The sample was then loaded into the chamber of a TGA thermal analyser at ambient temperature. A TA Instruments TGA5500 device was used. The sample was then heated at a rate of 20° C./min from 20° C. to 400° C. The purge gas used was nitrogen at a flow rate of 50 cm^3/min.
For the DSC analysis, approximately 2 mg of sample was accurately weighed into a pierced Tzero aluminium pan and sealed using a universal crimper. The sample was then loaded into the chamber of a DSC analyser at ambient temperature. A TA Instruments DSC2500 device was used. The sample was then heated at a rate of 20° C./min from 30° C. to 400° C. The purge gas used was nitrogen at a flow rate of 50 cm^3/min

The nature of data set [3]: Slurry in water for 48 hours, re-examined by XRPD (disproportionation). The data set is classed as physicochemical. The note with it: slurry in water 20 mg / 400 uL, ambient temperature, potassium salt. The procedure:
When a sample of Example compound 1 was stored in a slurry in water at 20 mg / 400uL for 48 hours at ambient temperature, recovered, dried by evaporation and re-examined by XRPD, there was no change in the X-ray diffractogram.

Data set [4] in a line: Stability in aqueous solutions (impurity profile by HPLC-UV). The data set is classed as physicochemical. The note with it: PBS (pH 7.4) and SCF, room temperature, 48 and 72 hours. As to the method: The solubility and stability at room temperature of Example compound 1 and the free acid compound 5-chloro-4-hydroxy-1-methyl-2-oxo-N-phenyl-quinoline-3-carboxamide (described in Example 1a) above) was determined in PBS (pH 7.4) and in simulated colonic fluid (SCF) at ambient temperature. The SCF was the product FaSSCof obtained from Biorelevant.com prepared according to the manufacturer’s instructions. FaSSCof contains 0.15 mM sodium cholate, 0.3 mM Phospholipids, 0.1 mM Oleate, 120 mM sodium hydroxide, 45 mM TRIS and 76 mM maleate.
Saturated solutions were prepared in these solvents and the concentrations/impurity profile was determined by HPLC-UV using a calibration curve in the range of 1 to 150 µg/ml at 300 nm or 320 nm. Visual evaluation was also performed after every step over the testing period.
The samples were also analysed for the presence of impurities. After a period of 48 and 72 hours, all impurities were below the lower limit of quantitation.

As for `Cn1c(=O)c(C(=O)Nc2ccccc2)c([O-])c2c(Cl)cccc21.[K+]` [Example compound 1, 5-chloro-4-hydroxy-1-methyl-2-oxo-N-phenyl-quinoline-3-carboxamide potassium salt], in data set [1] (1 mg/kg daily day 21 to 49, SCID mice, vs vehicle, FIG. 4), the Body weight change result is “less weight loss”. Further, the “Colon level of inflammatory markers (interferon-γ and IL-22)” value in data set [1] (1 mg/kg daily day 21 to 49, day 49, vs vehicle, FIG. 5) is recorded as “lower levels of inflammatory markers”. Also, the “Colon inflammation scores (visual and histopathological)” value in data set [1] (1 mg/kg daily day 21 to 49, day 49, vs vehicle, FIG. 6) was “fewer signs of inflammation”. Also, the “Inhibition of inflammation/edema associated with inflammatory bowel disease” value in data set [1] (CD4+ adoptive transfer model in mice, summary statement) is reported as “effective in inhibiting inflammation/edema”. The Degradation temperature is 347 °C in data set [2] (listed as 5-chloro-4-hydroxy-1-methyl-2-oxo-N-phenyl-quinoline-3-carboxamide potassium sal, potassium salt); 347 °C ±2 °C in data set [2] (listed as Example Compound 1, potassium salt); 347 °C in data set [2] (potassium salt). In addition, the “Stability in water slurry: change in X-ray diffractogram” value in data set [3] (listed as 5-chloro-4-hydroxy-1-methyl-2-oxo-N-phenylquinoline-3-carboxamide potassium salt) is listed as “stable when in a slurry”; in data set [3] it was “no change”. Also, the “Stability in aqueous solution (impurities)” value in data set [4] is listed as “stable in aqueous solution”.
